The test concerns the target T1, SHP2 full-length protein (Homo sapiens, UniProt Q06124).
T1 construct: purchased BPS Bioscience #79330
T1 sequence (Q06124 1-593): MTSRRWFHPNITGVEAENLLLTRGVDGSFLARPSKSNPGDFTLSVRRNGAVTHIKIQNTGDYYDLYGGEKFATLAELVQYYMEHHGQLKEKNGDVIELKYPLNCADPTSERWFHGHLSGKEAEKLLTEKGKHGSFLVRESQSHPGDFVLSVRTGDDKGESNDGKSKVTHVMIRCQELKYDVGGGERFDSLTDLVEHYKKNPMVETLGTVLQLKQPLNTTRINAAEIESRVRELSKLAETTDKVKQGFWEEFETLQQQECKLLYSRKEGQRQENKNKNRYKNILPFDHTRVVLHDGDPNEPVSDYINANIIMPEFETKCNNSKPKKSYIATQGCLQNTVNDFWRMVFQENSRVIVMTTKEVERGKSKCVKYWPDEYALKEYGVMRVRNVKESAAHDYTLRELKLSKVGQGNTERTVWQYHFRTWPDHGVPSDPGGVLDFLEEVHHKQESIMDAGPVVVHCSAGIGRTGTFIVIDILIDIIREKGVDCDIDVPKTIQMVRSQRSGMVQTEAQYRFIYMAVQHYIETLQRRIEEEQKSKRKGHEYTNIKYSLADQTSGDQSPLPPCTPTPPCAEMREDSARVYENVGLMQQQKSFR
The test can be described thus: SHP2 allosteric inhibition experiment (Homogeneous Full Length SHP-2 Assay Kit). It counts as biochemical. The conditions noted are these: full-length SHP2 0.06 nM with SHP-2 activating peptide; ten-point, 1 μM to 0.05 nM; read-out: IC50 Values of Compounds Inhibiting SHP2. The source says: The following further describes and explains the present invention in combination with test examples, but these examples are not meant to limit the scope of the present invention. SHP2 allosteric inhibition experiment
The purpose of this test is to measure the ability of the compounds to inhibit the allosteric activity of the SHP2 full-length protein. Experimental equipment: a centrifuge (5810R) is purchased from Eppendorf Company; pipettes are purchased from Eppendorf Company and Rainin Company, and microplate readers are purchased from BioTek Company of the United States, SynergyH1 multimode microplate reader.
Experimental method: Homogeneous Full Length SHP-2 Assay Kit (BPS Bioscience, #79330) is used to detect SHP2 activity in vitro. First, add 18 μL of Master Mix to 96-well low-adsorption microplate (NUNC, #267342), that is, 0.5 μL of SHP-2 activating Peptide and 5 mM DTT are included in the reaction buffer with a final concentration of 1×. After centrifugation, add 5 μL of the compound to be tested in DMSO (final DMSO content is 1% (V/V) in each well: dissolve the compound to be tested in DMSO to 1 mM, conduct triple dilution with a total of 10 concentration levels ranging from 1 μM to 0.05 nM in the reaction buffer. After diluting SHP2 in 1× reaction buffer to a final concentration of 0.06 nM, add it to the reaction microwell plate, 2 μL per well. Set a full activity control ([…]) and a full inhibition control (without SHP-2) on the reaction plate, and incubate the reaction mixture at room temperature for 60 minutes after centrifugation.
After incubation, add 25 μL of Substrate solution to each well, containing Substrate with a final concentration of 10 μM and DTT with a final concentration of 5 mM, and after centrifugation, continue to incubate at room temperature for 30 minutes. After the reaction, set the excitation wavelength at 340 nm, the emission wavelength at 455 nm, and the gain value to 75 on the Synergy H1 microplate reader (Biotek) for reading.
Take the full activity control and full inhibition control as the values of Max and Min, and calculate the percentage inhibition rate of the wells treated with the compound based on the positive control wells (DMSO control wells) and negative control wells (no kinase added) on the reaction plate, (inhibition rate percentage=100−[(test compound−Min average value)/(Max average value−Min average value)]×100%. IC50 values of test compounds are calculated by fitting percentage of inhibition and ten-point concentration data to a 4-parameter nonlinear logic formula using GraphPad prism.

Bounds are passed on as bounds.

As a reminder, the IC50 is the concentration needed to halve the response being measured.

Take `Nc1nccc(-n2c(=O)[nH]c3nc(N4CCC5(CC4)Cc4cnccc4[C@H]5N)ccc3c2=O)c1Cl` [Compound 27, (S)-3-(2-amino-3-chloropyridine-4-yl)-7-(5-amino-5,7-dihydrospiro[cyclopenta[c]pyridine-6,4′-piperidine]-1′-yl) pyridinyl[2,3-d]pyrimidine-2,4(1H,3H)-dione]: the IC50 is no more than 0.01 µM.

Turning to `N[C@@H]1c2ccncc2CC12CCN(c1ccc3c(=O)n(-c4ccnc(NC5CC5)c4Cl)c(=O)[nH]c3n1)CC2` [Compound 28], the IC50 is no more than 0.01 µM.

As to `C[C@@H]1OCC2(CCN(c3cnc4nc(Sc5cccc(-c6ccn(C)n6)c5Cl)ncc4n3)CC2)[C@@H]1N` [Compound 63, (3S,4S)-8-(2-((2-chloro-3-(1-methyl-1H-pyrazole-3-yl)phenyl)mercapto)pteridine-6-y 1)-3-methyl-2-oxa-8-azaspiro[4.5]decane-4-amine], the IC50 was no more than 0.01 µM.

On to `C[C@@H]1OCC2(CCN(c3ncc4nc(Sc5cccc(-c6ccn(C)n6)c5Cl)cnc4n3)CC2)[C@@H]1N` [Compound 64, (3S,4S)-8-(6-((2-chloro-3-(1-methyl-1H-pyrazole-3-yl)phenyl)mercapto)pteridine-2-y 1)-3-methyl-2-oxa-8-azaspiro[4.5]decane-4-amine], for which the IC50 was no more than 0.01 µM.

Consider `C[C@@H]1OCC2(CCN(c3ccc4nc(Sc5cccc(-c6ccn(C)n6)c5Cl)ncc4n3)CC2)[C@@H]1N` [Compound 65, (3S,4S)-8-(2-((2-chloro-3-(1-methyl-1H-pyrazole-3-yl)phenyl)mercapto)pyridinyl[3,2-d]pyrimidine-6-yl)-3-methyl-2-oxa-8-azaspiro[4.5]decane-4-amine], for which the IC50 is no more than 0.01 µM.

For `CCn1ccc(-c2cccc(Sc3ncc4nc(N5CCC6(CC5)CO[C@@H](C)[C@H]6N)cnc4n3)c2Cl)n1` [Compound 66, (3S,4S)-8-(2-((2-chloro-3-(1-ethyl-1H-pyrazole-3-yl)phenyl)mercapto)pteridine-6-yl)-3-methylyl-2-oxa-8-azaspiro[4.5]decane-4-amine], the 50% inhibitory concentration (IC50) was no more than 0.01 µM.

As for `CCn1ccc(-c2cccc(Sc3cnc4nc(N5CCC6(CC5)CO[C@@H](C)[C@H]6N)ncc4n3)c2Cl)n1` [Compound 67, (3S,4S)-8-(6-((2-chloro-3-(1-ethyl-1H-pyrazole-3-yl)phenyl)mercapto)pteridine-2-yl)-3-methylyl-2-oxa-8-azaspiro[4.5]decane-4-amine], the IC50 is no more than 0.01 µM.

For the molecule `CCn1ccc(-c2cccc(Sc3ncc4nc(N5CCC6(CC5)CO[C@@H](C)[C@H]6N)ccc4n3)c2Cl)n1` [Compound 68, (3S,4S)-8-(2-((2-chloro-3-(1-ethyl-1H-pyrazole-3-yl)phenyl)mercapto)pyridinyl[3,2-d]pyrimidine-6-yl)-3-methyl-2-oxa-8-azaspiro[4.5]decane-4-amine], the IC50 is no more than 0.01 µM.

In the case of `CC(C)n1ccc(-c2cccc(Sc3ncc4nc(N5CCC6(CC5)CO[C@@H](C)[C@H]6N)cnc4n3)c2Cl)n1` [Compound 69, (3S,4S)-8-(2-((2-chloro-3-(1-isopropyl-1H-pyrazole-3-yl)phenyl)mercapto)pteridine-6-yl)-3-methyl-2-oxa-8-azaspiro[4.5]decane-4-amine], the IC50 was no more than 0.01 µM.

For the molecule `CC(C)n1ccc(-c2cccc(Sc3cnc4nc(N5CCC6(CC5)CO[C@@H](C)[C@H]6N)ncc4n3)c2Cl)n1` [Compound 70, (3S,4S)-8-(6-((2-chloro-3-(1-isopropyl-1H-pyrazole-3-yl)phenyl)mercapto)pteridine-2-yl)-3-methyl-2-oxa-8-azaspiro[4.5]decane-4-amine], the IC50 is no more than 0.01 µM.

As to `CC(C)n1ccc(-c2cccc(Sc3ncc4nc(N5CCC6(CC5)CO[C@@H](C)[C@H]6N)ccc4n3)c2Cl)n1` [Compound 71, (3S,4S)-8-(2-((2-chloro-3-(1-isopropyl-1H-pyrazole-3-yl)phenyl)mercapto)pyridinyl[3,2-d]pyrimidine-6-yl)-3-methyl-2-oxa-8-azaspiro[4.5]decane-4-amine], the half-inhibitory concentration (IC50) was no more than 0.01 µM.

Consider `C[C@@H]1OCC2(CCN(c3cnc4nc(Sc5cccc(-c6cnccn6)c5Cl)ncc4n3)CC2)[C@@H]1N` [Compound 72, (3S,4S)-8-(2-((2-chloro-3-(pyrazine-2-yl)phenyl)mercapto)pteridine-6-yl)-3-methyl-2-oxa-8-azaspiro[4.5]decane-4-amine], for which the IC50 is no more than 0.01 µM.

Regarding `C[C@@H]1OCC2(CCN(c3ncc4nc(Sc5cccc(-c6cnccn6)c5Cl)cnc4n3)CC2)[C@@H]1N` [Compound 73, (3S,4S)-8-(6-((2-chloro-3-(pyrazine-2-yl)phenyl)mercapto)pteridine-2-yl)-3-methyl-2-oxa-8-azaspiro[4.5]decane-4-amine], the IC50 was no more than 0.01 µM.

As for `C[C@@H]1OCC2(CCN(c3ccc4nc(Sc5cccc(-c6cnccn6)c5Cl)ncc4n3)CC2)[C@@H]1N` [Compound 74, (3S,4S)-8-(2-((2-chloro-3-(pyrazine-2-yl)phenyl)mercapto)pyridinyl[3,2-d]pyrimidine-6-yl)-3-methyl-2-oxa-8-azaspiro[4.5]decane-4-amine], the IC50 was no more than 0.01 µM.

For the molecule `C[C@@H]1OCC2(CCN(c3cnc4nc(Sc5cccc(-c6ccncn6)c5Cl)ncc4n3)CC2)[C@@H]1N` [Compound 75, (3S,4S)-8-(2-((2-chloro-3-(pyrimidine-4-yl)phenyl)mercapto)pteridine-6-yl)-3-methyl-2-oxa-8-azaspiro[4.5]decane-4-amine], the IC50 is no more than 0.01 µM.

Regarding `C[C@@H]1OCC2(CCN(c3ncc4nc(Sc5cccc(-c6ccncn6)c5Cl)cnc4n3)CC2)[C@@H]1N` [Compound 76, (3S,4S)-8-(6-((2-chloro-3-(pyrimidine-4-yl)phenyl)mercapto)pteridine-2-yl)-3-methyl-2-oxa-8-azaspiro[4.5]decane-4-amine], the IC50 was no more than 0.01 µM.

For the molecule `C[C@@H]1OCC2(CCN(c3ccc4nc(Sc5cccc(-c6ccncn6)c5Cl)ncc4n3)CC2)[C@@H]1N` [Compound 77, (3S,4S)-8-(2-((2-chloro-3-(pyrimidine-4-yl)phenyl)mercapto)pyridinyl[3,2-d]pyrimidine-6-yl)-3-methyl-2-oxa-8-azaspiro[4.5]decane-4-amine], the IC50 was no more than 0.01 µM.

In the case of `C[C@@H]1OCC2(CCN(c3cnc4nc(Sc5cccc(-c6cccnc6)c5Cl)ncc4n3)CC2)[C@@H]1N` [Compound 78], the IC50 is no more than 0.01 µM.

Regarding `C[C@@H]1OCC2(CCN(c3ccc4nc(Sc5cccc(-c6cccnc6)c5Cl)ncc4n3)CC2)[C@@H]1N` [Compound 80], the IC50 was no more than 0.01 µM.

For `C[C@@H]1OCC2(CCN(c3cnc4nc(Sc5cccc(NC(=O)c6ccncn6)c5Cl)ncc4n3)CC2)[C@@H]1N` [Compound 81, N-(3-((6-((3S,4S)-4-amino-3-methyl-2-oxa-8-azaspiro[4.5]decane-8-yl)pteridine-2-yl)mercapto)-2-chlorophenyl)pyrimidine-4-carboxamide], the 50% inhibitory concentration (IC50) is no more than 0.01 µM.

With `C[C@@H]1OCC2(CCN(c3ncc4nc(Sc5cccc(NC(=O)c6ccncn6)c5Cl)cnc4n3)CC2)[C@@H]1N` [Compound 82, N-(3-((2-((3S,4S)-4-amino-3-methyl-2-oxa-8-azaspiro[4.5]decane-8-yl)pteridine-6-yl)mercapto)-2-chlorophenyl)pyrimidine-4-carboxamide], the IC50 was no more than 0.01 µM.

On to `C[C@@H]1OCC2(CCN(c3ccc4nc(Sc5cccc(NC(=O)c6ccncn6)c5Cl)ncc4n3)CC2)[C@@H]1N` [Compound 83, N-(3-((6-((3S,4S)-4-amino-3-methyl-2-oxa-8-azaspiro[4.5]decane-8-yl)pyridinyl[3,2-d]pyrimidine-2-yl)mercapto)-2-chlorophenyl)pyrimidine-4-carboxamide], for which the IC50 is no more than 0.01 µM.

(Values after patent publication US20240270759A1, “Preparation of SHP2 phosphatase inhibitors and its applications” (Ya Therapeutics Inc, priority 2021, published 2024).)
